Test results taken from ChEMBL document CHEMBL1154026, “FXR agonist activity of conformationally constrained analogs of GW 4064” (Bioorg Med Chem Lett, 2009).

Legend:
[1] = target: T1, Bile acid receptor (Homo sapiens) (UniProt Q96RI1); assay: Increase in human FXR-mediated transient transcription of luciferase reporter gene transfected in african green monkey CV1 cells relative to GW-4064; assay type: cell-based; design: concentration or dose not given beside the values; conditions: CV-1
T1 sequence (whole entry): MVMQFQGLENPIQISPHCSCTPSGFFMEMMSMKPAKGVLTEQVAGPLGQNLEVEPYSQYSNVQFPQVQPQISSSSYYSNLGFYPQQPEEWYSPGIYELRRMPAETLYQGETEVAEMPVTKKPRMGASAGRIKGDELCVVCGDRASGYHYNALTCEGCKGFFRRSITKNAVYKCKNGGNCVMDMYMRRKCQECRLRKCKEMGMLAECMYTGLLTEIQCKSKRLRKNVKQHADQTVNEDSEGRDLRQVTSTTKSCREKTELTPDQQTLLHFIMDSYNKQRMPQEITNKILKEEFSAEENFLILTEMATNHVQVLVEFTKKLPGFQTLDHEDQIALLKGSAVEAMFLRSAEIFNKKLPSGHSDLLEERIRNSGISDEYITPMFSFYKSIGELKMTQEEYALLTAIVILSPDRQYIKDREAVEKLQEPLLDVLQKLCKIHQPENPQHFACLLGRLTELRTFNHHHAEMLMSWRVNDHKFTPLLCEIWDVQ

Bile acid receptor [2] = target: T2, Bile acid receptor (Homo sapiens, UniProt Q96RI1); assay: Induction of SRC1 coactivator peptide binding to ligand binding domain of human FXR by FRET assay
T2 sequence (Q96RI1 whole entry): T1 sequence (whole entry)

[3] = target: T1, Bile acid receptor (Homo sapiens); assay: Induction of SRC1 coactivator peptide binding to ligand binding domain of human FXR by FRET assay relative to GW-4064; design: concentration or dose not given beside the values
Bile acid receptor [4] = target: T2, Bile acid receptor; assay: Increase in human FXR-mediated transient transcription of luciferase reporter gene transfected in african green monkey CV1 cells; assay type: cell-based, CV-1
[5] = Terminal half life in rat at 1 mg/kg, iv; assay type: ADME, organism-based; design: dose 1 mg/kg, route intravenous; conditions: in vivo, read-out: beta t1/2
[6] = Total clearance in rat at 1 mg/kg, iv; assay type: ADME, organism-based; design: dose 1 mg/kg, route intravenous; conditions: in vivo
[7] = Oral bioavailability in rat at 5 mg/kg; assay type: ADME, organism-based; conditions: in vivo
[8] = Volume of distribution at steady state in rat at 1 mg/kg, iv; assay type: ADME, organism-based; design: dose 1 mg/kg, route intravenous; conditions: in vivo, read-out: Vdss

Row | SMILES | Activity [1] [%] | EC50 (Bile acid receptor [2]) [nM] | Activity [3] [%] | EC50 (Bile acid receptor [4]) [nM] | half-life [5] [min] | clearance [6] [mL/min/kg] | bioavailability [7] [%] | Vd [8] [L/kg]
1 | CC(C)c1onc(-c2c(Cl)cccc2Cl)c1COc1ccc2c(ccn2C(=O)c2cccc(C(=O)O)c2)c1 | 63 | 150 | 68 | 860 | – | – | – | –
2 | CC(C)c1onc(-c2c(Cl)cccc2Cl)c1COc1ccc2[nH]c(-c3cccc(C(=O)O)c3)cc2c1 | 103 | 480 | 81 | 630 | – | – | – | –
3 | CC(C)c1onc(-c2c(Cl)cccc2Cl)c1COc1ccc2c(ccn2Cc2ccc(C(=O)O)cc2)c1 | 79 | 160 | 80 | 330 | – | – | – | –
4 | CC(C)c1onc(-c2c(Cl)cccc2Cl)c1COc1ccc2sc(-c3cccc(C(=O)O)c3)cc2c1 | 87 | 55 | 90 | 32 | 15 | 66 | 8.5 | 0.72
5 | CC(C)c1onc(-c2c(Cl)cccc2Cl)c1COc1ccc2[nH]cc(Cc3cccc(C(=O)O)c3)c2c1 | – | 1500 | 25 | > 10000 | – | – | – | –
6 | CC(C)c1onc(-c2c(Cl)cccc2Cl)c1COc1ccc2cc(-c3cccc(C(=O)O)c3)ccc2c1 | 103 | 110 | 88 | 130 | – | – | – | –
7 | CC(C)c1onc(-c2c(Cl)cccc2Cl)c1COc1ccc2nc(-c3cccc(C(=O)O)c3)sc2c1 | 86 | 410 | 72 | 410 | – | – | – | –
8 | CC(C)c1onc(-c2c(Cl)cccc2Cl)c1COc1ccc2c(c1)ncn2Cc1cccc(C(=O)O)c1 | 40 | 1400 | 38 | 5000 | 31 | 4.4 | 26 | 0.085
9 | CC(C)c1onc(-c2c(Cl)cccc2Cl)c1COc1ccc2c(c1)CCN(c1cccc(C(=O)O)c1)C2=O | 112 | 710 | 52 | 8300 | – | – | – | –
10 | CC(C)c1onc(-c2c(Cl)cccc2Cl)c1COc1ccc2cc(-c3cccc(C(=O)O)c3)sc2c1 | 93 | 140 | 92 | 63 | – | – | – | –
11 | CC(C)c1onc(-c2c(Cl)cccc2Cl)c1COc1ccc2c(Nc3cccc(C(=O)O)c3)cccc2c1 | 57 | 320 | 95 | 81 | – | – | – | –
12 | CC(C)c1onc(-c2c(Cl)cccc2Cl)c1COc1ccc2c(c1)CC(=O)N(c1cccc(C(=O)O)c1)C2 | – | 1100 | 75 | > 10000 | – | – | – | –
13 | CC(C)c1onc(-c2c(Cl)cccc2Cl)c1COc1ccc2cc(-c3ccc(C(=O)O)cc3)sc2c1 | 79 | 200 | 95 | 220 | – | – | – | –
14 | CC(C)c1onc(-c2c(Cl)cccc2Cl)c1COc1ccc2sc(-c3ccc(C(=O)O)cc3)cc2c1 | 89 | 280 | 80 | 160 | – | – | – | –
15 | CC(C)c1onc(-c2c(Cl)cccc2Cl)c1COc1ccc2c(ccn2S(=O)(=O)c2cccc(C(=O)O)c2)c1 | 63 | 160 | 87 | 1300 | – | – | – | –
16 | CC(C)c1onc(-c2c(Cl)cccc2Cl)c1COc1ccc2c(c1)CN(c1cccc(C(=O)O)c1)C2=O | 61 | 670 | 59 | 1100 | – | – | – | –
17 | CC(C)c1onc(-c2c(Cl)cccc2Cl)c1COc1ccc2cc(-c3ccc(C(=O)O)cc3)ccc2c1 | 170 | 440 | 68 | 980 | – | – | – | –
18 | CC(C)c1onc(-c2c(Cl)cccc2Cl)c1CCc1nc2cc(-c3cccc(C(=O)O)c3)ccc2o1 | 75 | 1200 | 41 | 710 | – | – | – | –
19 | CC(C)c1onc(-c2c(Cl)cccc2Cl)c1COc1ccc2c(Cc3cccc(C(=O)O)c3)c[nH]c2c1 | 32 | 590 | 81 | 930 | – | – | – | –
20 | CC(C)c1onc(-c2c(Cl)cccc2Cl)c1CNc1nc2ccc(-c3cccc(C(=O)O)c3)cc2s1 | 123 | 960 | 91 | 380 | – | – | – | –
21 | CC(C)c1onc(-c2c(Cl)cccc2Cl)c1COc1ccc2c(ccn2Cc2cccc(C(=O)O)c2)c1 | 84 | 320 | 80 | 210 | 45 | 6.7 | 12 | 0.07
22 | CC(C)c1onc(-c2c(Cl)cccc2Cl)c1CCc1nc2cccc(Nc3cccc(C(=O)O)c3)c2o1 | – | 1700 | 19 | > 10000 | – | – | – | –
